Five molecules from patent US20260015363A1, “SUBSTITUTED PYRIMIDINE-FUSED RING INHIBITOR, METHOD FOR PREPARING SAME, AND USE THEREOF” (Suzhou Zelgen Biopharmaceuticals Co., Ltd., priority 2022, published 2026) can be followed below.

One assay concerns AsPC-1 (G12D). The assay can be described thus: KRAS mutant cell proliferation inhibition assay (CellTiter-Glo 3D), AsPC-1. The class given is cell-based, human. Conditions: Homo sapiens, ASPC1, 168 h, AsPC-1 (G12D) cells, 7 days. On the procedure: (§1) Positive control: MRTX1133
(§2) • (a) The cells were thawed in T75 cell culture flasks: • (b) When 80%-90% cell confluence was achieved, the cells were passaged.
(§3) The diluted test compound was added to a 384-well cell culture plate using a nanoliter pipetting system, and replicate wells were set. An equal volume of medium was added to the positive control group; an equal volume of DMSO was added to the negative control group. The plate was centrifuged at 1000 rpm at room temperature for 1 min.
(§4) The cells were seeded into a) 384-well culture plate. An equal volume of cells was added to the negative control group, and only an equal volume of medium was added to the positive control group. The plate was centrifuged at 1000 rpm at room temperature for 1 min. The final DMSO concentration in the final compound was 0.5%. The plate was incubated in a thermostatic incubator at 37° C. with 5% CO2 for 7 days.
(§5) CellTiter-Glo® 3D was added to b) 384-well cell culture plate at 20 μL/well. The plate was shaken at 320 rpm in the dark for 20 min, and incubated at room temperature in the dark for 2 h. The luminescence values were read using an Envision multi-mode microplate reader.
(§6) The inhibition rates (IRs) of the test compounds were calculated according to the following formula: IR (%)=(1−(RLU compound−RLU blank control)/(RLU vehicle control−RLU blank control))×100%. The inhibition rates of the compounds at different concentrations were calculated in Excel, and then inhibition curves were plotted and relevant parameters including minimum inhibition rate, maximum inhibition rate and IC50 were calculated using GraphPad Prism software.

The subject of a further assay is PSN-1 (G12R). The assay can be described thus: KRAS mutant cell proliferation inhibition assay (CellTiter-Glo 3D), PSN-1. The class given is cell-based. Conditions: Homo sapiens, PSN1, 168 h, PSN-1 (G12R) cells, 7 days. On the procedure: as §1, §2, §3, §4, §5, §6
The test system of a further assay is H727 (G12V). In words: KRAS mutant cell proliferation inhibition assay (CellTiter-Glo 3D), H727. Conditions: Homo sapiens, NCI-H727, 168 h, H727 (G12V) cells, 7 days. It counts as cell-based, human. The procedure: as §1, §2, §3, §4, §5, §6
The subject of the next assay is SW480 (G12V). The assay can be described thus: KRAS mutant cell proliferation inhibition assay (CellTiter-Glo 3D), SW480. It counts as cell-based. Conditions: Homo sapiens, 168 h, SW480 (G12V) cells, 7 days. On the procedure:
as §1, §2, §3, §4, §5, §6

The test system of a further assay is MNK1 (WT). In words: Cell proliferation inhibition assay (CellTiter-Glo 3D), MNK1. It counts as cell-based, human. Conditions: Homo sapiens, 168 h, MNK1 (WT) cells, 7 days. The procedure:
as §1, §2, §3, §4, §5, §6

Counter-ions that a name gives are not always drawn.

`C#Cc1c(F)ccc2cc(O)cc(-c3ncc4c(N5CC6CCC(C5)N6)nc(OC[C@@]56CCCN5C[C@H](F)C6)nc4c3F)c12` [MRTX1133, reference compound]: the IC50 with AsPC-1 (G12D) is 10.1 nM; in the assay with PSN-1 (G12R), greater than 10000 nM; in the assay with H727 (G12V) it was 2270 nM; with SW480 (G12V), 432 nM; with MNK1 (WT), 319 nM.

As to `CCc1c(F)ccc2cc(O)cc(-c3ncc4c(N5CCCC6(CCO6)C5)nc(OC[C@@]56CCCN5C[C@@]5(CC5(F)F)C6)nc4c3F)c12` (stereo partly drawn) [Example A-16, 4-(2-(((1S,7a'S)-2,2-Difluorodihydro-1′H,3′H-spiro[cyclopropane-1,2′-pyrrolizin]-7a′ (5′H)-yl)methoxy)-8-fluoro-4-(1-oxa-6-azaspiro[3.5]nonan-6-yl)pyrido[4,3-d]pyrimidin-7-yl)-5-ethyl-6-fluoronaphthalen-2-ol], the IC50 in the assay on AsPC-1 (G12D) is 11.4 nM; in the assay on PSN-1 (G12R), 1000 nM; with H727 (G12V), 45.1 nM; in the assay with SW480 (G12V) it was 68.2 nM; in the assay with MNK1 (WT), 22.7 nM.

For `CCc1c(F)ccc2cc(O)cc(-c3ncc4c(N5CCOCC(C)(O)C5)nc(OC[C@@]56CCCN5C[C@@]5(CC5(F)F)C6)nc4c3F)c12` (stereo partly drawn) [Example A-38, 4-(2-(((1S,7a'S)-2,2-Difluorodihydro-1′H,3′H-spiro[cyclopropane-1,2′-pyrrolizin]-7a′ (5′H)-yl)methoxy)-7-(8-ethyl-7-fluoro-3-hydroxynaphthalen-1-yl)-8-fluoropyrido[4,3-d]pyrimidin-4-yl)-6-methyl-1.4-oxazenan-6-ol], the IC50 is 31.6 nM in the assay on AsPC-1 (G12D), greater than 10000 nM in the assay with PSN-1 (G12R), 119 nM with H727 (G12V) and 21.4 nM in the assay with MNK1 (WT).

As to `CCc1c(F)ccc2cc(O)cc(-c3ncc4c(N5CCC[C@]6(C5)NC(=O)NC6=O)nc(OC[C@@]56CCCN5C[C@@]5(CC5(F)F)C6)nc4c3F)c12` [Example A-27, (R)-7-(2-(((1S,7a'S)-2,2-Difluorodihydro-1′H,3′H-spiro[cyclopropane-1,2′-pyrrolizin]-7a′ (5′H)-yl)methoxy)-7-(8-ethyl-7-fluoro-3-hydroxynaphthalen-1-yl)-8-fluoropyrido[4,3-d]pyrimidin-4-yl)-1,3,7-triazaspiro[4.5]decane-2,4-dione], the IC50 with AsPC-1 (G12D) was 23.2 nM; in the assay with PSN-1 (G12R), 79.7 nM; in the assay on H727 (G12V) it was 35.9 nM; with MNK1 (WT) it was 5.35 nM.

Take `CCc1c(F)ccc2cc(O)cc(N3CCc4c(nc(OCC56CCCN5C[C@@]5(C6)CC5(F)F)nc4N4CCCn5nc(C(=O)N(C)C)cc5C4)C3)c12` (stereo in doubt) [Example B-14, 5-(2-(((1R,7a′R)-2,2-Difluorodihydro-1′H,3′H-spiro[cyclopropane-1,2′-pyrrolizin]-7a′ (5′H)-yl)methoxy)-7-(8-ethyl-7-fluoro-3-hydroxynaphthalen-1-yl)-5,6,7,8-tetrahydropyrido[3,4-d]pyrimidin-4-yl)-N,N-dimethyl-5,6,7,8-tetrahydro-4H-pyrazolo[1,5-a][1,4]diazepine-2-carboxamide hydrochloride]: the IC50 with AsPC-1 (G12D) is 26.9 nM; in the assay with PSN-1 (G12R) it was 7560 nM; in the assay on H727 (G12V), 127 nM; with MNK1 (WT), 92.3 nM.
